Measurements reported in patent EP4603477A1, “INHIBITORS OF THE CORONAVIRUS ACCESSORY PROTEIN ORF9B” (Consejo Superior De Investigaciones Científicas, priority 2024, dated 2025).

system: THP-1 cells stably integrating and constitutively expressing ORF9b; test: Cytokine quantification (Procartaplex multiplex) in THP-1 cells expressing ORF9b; assay type: cell-based; details: 1 µM or 5 µM
Description: THP-1 cells stably integrating and constitutively expressing ORF9b were generated as described under "Biochemical and biological activity (2)". Cytokines (IL-1β, IL-18, IL-10, TNF-α) were quantified by means of Procartaplex multiplex assays (InVitrogen, ThermoFisher), following instructions by the supplier. Briefly, capture beads were incubated for 2 h with cleared cell supernatants, washed and incubated with biotinylated detection antibody mix, incubated for 30 min, washed and incubated with Streptavidin-PE for 30 min, washed and data acquired on a Luminex 200 instrument. To ascertain the effect of ORF9b homodimerization inhibitors on ORF9b-mediated cytokine secretion, THP1-1 cells with the above modifications were treated with 1 µM or 5 µM of each of the compounds (final concentrations in cell culture media), and cytokine levels determined in cell culture supernatants. All determinations were performed in triplicate, and analyzed statistically significance in differences by means of a two-tailed Student's t-test. Inhibition of ORF9b-mediated secretion of cytokines was considered significant with p values ≤ 0.05.

SMILES	ORF9b-induced release of IL-1β	ORF9b-induced release of IL-10	ORF9b-induced release of IL-18	ORF9b-induced release of TNF-α
Nc1ccc(F)c(NC(=O)Cc2ccccc2)c1 [Compound 1]	inhibited	inhibited	inhibited	
Nc1ccc(F)c(NC(=O)c2cccc3ccccc23)c1 [Compound 2, N-(5-Amino-2-fluorophenyl)-1-naphthamide]	inhibited	inhibited	inhibited	
O=C(Cc1ccc(Cl)cc1)Nc1cc([N+](=O)[O-])ccc1F [Compound 6, 2-(4-Chlorophenyl)-N-(2-fluoro-5-nitrophenyl)acetamide]	inhibited	inhibited	inhibited	
CC(C)(O)c1coc(S(=O)(=O)NC(=O)Nc2c3c(cc4c2CCC4)CCC3)c1 [MCC950, reference compound]	abrogated	abrogated	abrogated	abrogated
